Test [1] relates to Sa (NCTC8325). Kind of test: Broth assay, antibacterial activity (MIC/MBC) against Sa (NCTC8325). The format is cell-based, Stapphalococcus aureus. The note with it: for MIC: 24 h. How it is done:
(§1) The invention specifically relates to the process for the preparation of antimicrobial derivatives of saturated anacardic acid (C15:0). The mixture of anacardic acids chromatographically purified from CNSL was hydrogenated using Pd—C to get the saturated anacardic acid (C15:0). Said derivatives were prepared by adopting the techniques used in synthetic chemistry for nitration, halogenation and acetylation of various organic compounds. The synthesized derivatives were assayed for anti bacterial activity against Stapphalococcus aureus and Methicillin resistant Stapphalococcus aureus and Enterococcus fecalis by the broth assay used for antibiotic susceptibility tests and the minimum inhibitory concentration (MIC) and minimum bactericidal concentration (MBC) determined.
(§2) Procedure for Antimicrobial Testing:
(§3) The bacterial colonies from Luria-Bertani (LB) agar plates were inoculated into sterile LB broth and incubated in an incubator shaker for 12 h. This culture was diluted such that the innoculum when added to the test broth would correspond to 10^5 colony forming units (CFU). The broth assays were done in sterile culture tubes containing 5 mL of LB medium. The test compounds dissolved in ethanol and controls were added to these tubes and then the innoculum was added and the tubes incubated at 37° C. for 24 h. After 24 h incubation the OD600 was recorded and then plated on LB agar plates and incubated fore 24 h at 37° C. The colonies were counted and the minimum inhibitory concentration (MIC) and minimum bactericidal concentration (MBC) calculated. The MIC is determined by the minimum concentration of the sample at which no growth was observed as determined by measuring the OD600. The MBC is determined by the concentration at which there is a reduction in the cfu in the broth assay from 10^5 to 10^3 counted after plating on LB agar plates.

Test [2] deals with E. fecalis. Kind of test: Broth assay, antibacterial activity (MIC/MBC) against E. fecalis. It counts as cell-based. The note with it: Enterococcus; for MIC: 24 h. On the procedure:
as §1, §2, §3

Test [3] concerns MRSA. Kind of test: Broth assay, antibacterial activity (MIC/MBC) against MRSA. To be noted: Staphylococcus aureus; for MIC: 24 h. It counts as cell-based, Methicillin resistant Stapphalococcus aureus. On the procedure: as §1, §2, §3
The test system of test [4] is MRSA. The note with it: against MRSA; Kube et al; cited from earlier work.
The mark [5] stands for this setting: Sa (NCTC8325), LB broth, 37° C., no growth by OD600, read-out: MIC.
The mark [6] stands for this setting: Sa (NCTC8325), reduction in cfu from 10^5 to 10^3 after plating on LB agar, read-out: MBC.
Setting [7] is: E. fecalis, LB broth, 37° C., no growth by OD600, read-out: MIC.
The mark [8] stands for this setting: E. fecalis, reduction in cfu from 10^5 to 10^3 after plating on LB agar, read-out: MBC.
Where [9] appears, read: LB broth, 37° C., no growth by OD600, read-out: MIC.
Setting [10] is: reduction in cfu from 10^5 to 10^3 after plating on LB agar, read-out: MBC.

Structures are written as SMILES. Converted amounts (≈) assume the structure as drawn. Read-outs that look alike come from different tables or passages of the source.

What is called MBC is the smallest concentration meeting the test's criterion for killing. As usually defined, the MIC is the lowest concentration found to suppress growth.

On to `CCCCCCCCCCCCCCCc1cc([N+](=O)[O-])c([N+](=O)[O-])c(O)c1C(=O)O` [NAA, 3,4-Dinitro-6-pentadecyl-2-hydroxybenzoic acid], for which the values for the MBC in test [1], in test [2] and in test [3] were 7 to 8 µg/mL (≈ 16 to 18.2 µM), 7 µg/mL (≈ 16 µM) and 10 µg/mL (≈ 22.8 µM), respectively. Moreover, the MIC in test [1] stood at 1 µg/mL (≈ 2.28 µM); in test [2], 0.5 µg/mL (≈ 1.14 µM); in test [3], 1 µg/mL (≈ 2.28 µM).
On to `CCCCCCCCCCCCCCCc1c(Br)ccc(O)c1C(=O)O` [DBAA, 5-Bromo-6-pentadecyl-2-hydroxybenzoic acid], for which the MIC in test [1] (setting [5]) was > 10 µg/mL; in test [2] (setting [7]) it was 6 µg/mL (≈ 14 µM); in test [3] (setting [9]) it was > 20 µg/mL. For the same molecule, the figures for the MBC in test [1] (setting [6]), in test [2] (setting [8]) and in test [3] (setting [10]) were > 10 µg/mL, 6 µg/mL (≈ 14 µM) and > 20 µg/mL, respectively.
Consider `CCCCCCCCCCCCCCCc1cccc(OC)c1C(=O)NC(Cc1ccc(O)cc1)C(=O)O` (centres unmarked) [MAAY], for which the values for the MIC in test [1] (setting [5]), in test [2] (setting [7]) and in test [3] (setting [9]) were 3 to 5 µg/mL (≈ 5.71 to 9.51 µM), 6 µg/mL (≈ 11.4 µM) and 2 µg/mL (≈ 3.8 µM), respectively. Besides, the MBC in test [1] (setting [6]) was > 10 µg/mL; in test [2] (setting [8]), > 10 µg/mL; in test [3] (setting [10]), 10 µg/mL (≈ 19 µM).
Turning to `C=C[C@@](C)(/C=C/c1ccc(OC(=O)c2c(CCCCCCCCCCCCCCC)cccc2OC)cc1)CCC=C(C)C` [MAA-Ba], the MIC in test [1] (setting [5]) is > 10 µg/mL; in test [2] (setting [7]), 6 µg/mL (≈ 9.98 µM); in test [3] (setting [9]), > 20 µg/mL. In addition, the MBC in test [1] (setting [6]) is > 10 µg/mL; in test [2] (setting [8]), > 10 µg/mL; in test [3] (setting [10]) it was > 20 µg/mL.
With `CCCCCCCCCCCCCCCc1cccc(OC)c1C(=O)NC1C(=O)N2C1SC(C)(C)C2C(=O)O` (centres unmarked) [MAA-APA], the MIC in test [1] (setting [5]) was > 10 µg/mL; in test [2] (setting [7]), 6 µg/mL (≈ 10.7 µM); in test [3] (setting [9]), 10 to 20 µg/mL (≈ 17.8 to 35.7 µM). The MBC was > 10 µg/mL in test [1] (setting [6]), > 10 µg/mL in test [2] (setting [8]) and > 20 µg/mL in test [3] (setting [10]).
In the case of `CCCCCCCCCCCCCCCc1cccc(OC)c1C(=O)Nc1ccc([N+](=O)[O-])cc1` [MAA-PNA], the MIC is > 10 µg/mL in test [1] (setting [5]), > 10 µg/mL in test [2] (setting [7]) and > 20 µg/mL in test [3] (setting [9]). Further, the MBC in test [1] (setting [6]) is > 10 µg/mL; in test [2] (setting [8]), > 10 µg/mL; in test [3] (setting [10]), > 20 µg/mL.
For `CCCCCCCCCCCCCCCc1c([N+](=O)[O-])cc([N+](=O)[O-])c(O)c1C(=O)O` [DAA, 3,5-Dinitro-6-pentadecyl-2-hydroxybenzoic acid], the values for the MBC in test [1], in test [2] and in test [3] were 3 to 5 µg/mL (≈ 6.84 to 11.4 µM), 6 µg/mL (≈ 13.7 µM) and 6 µg/mL (≈ 13.7 µM), respectively. For the same molecule, the MIC amounted to 2 µg/mL (≈ 4.56 µM) in test [1], 6 µg/mL (≈ 13.7 µM) in test [2] and 3 µg/mL (≈ 6.84 µM) in test [3].
For `CCCCCCCCCCCCCCCc1cccc(OC(C)=O)c1C(=O)O` [AAA, 6-Pentadecyl-2-acetyloxybenzoic acid], the MIC in test [1] (setting [5]) came to 6 µg/mL (≈ 15.4 µM); in test [2] (setting [7]), 1 µg/mL (≈ 2.56 µM); in test [3] (setting [9]), 2 µg/mL (≈ 5.12 µM). Besides, the MBC was 7 to 8 µg/mL (≈ 17.9 to 20.5 µM) in test [1] (setting [6]), 6 µg/mL (≈ 15.4 µM) in test [2] (setting [8]) and 6 µg/mL (≈ 15.4 µM) in test [3] (setting [10]).
Regarding `CCCCCCCCCCCCCCCc1c([N+](=O)[O-])cc([N+](=O)[O-])c(OC)c1C(=O)O` [MDAA, 3,5-Dinitro-6-pentadecyl-2-Methoxybenzoic acid], the figures for the MIC in test [1] (setting [5]), in test [2] (setting [7]) and in test [3] (setting [9]) were 6 µg/mL (≈ 13.3 µM), 0.5 µg/mL (≈ 1.1 µM) and 2 µg/mL (≈ 4.42 µM), respectively. In addition, the figures for the MBC in test [1] (setting [6]), in test [2] (setting [8]) and in test [3] (setting [10]) were 8 µg/mL (≈ 17.7 µM), 2 µg/mL (≈ 4.42 µM) and 4 µg/mL (≈ 8.84 µM), respectively.
In the case of `C=CCC=CCC=CCCCCCCCc1cccc(O)c1C(=O)O` [triene (C15:3)], the “minimum inhibitory concentration (MIC)” value in test [4] is 6.5 µg/mL (≈ 19 µM).
`CCCCCCCCCCCCCCCc1cccc(OC)c1C(=O)O` [MAA, 2-Methoxy-6-Pentadecyl-benzoic acid]: the minimal inhibitory concentration (MIC) in test [1] (setting [5]), in test [2] (setting [7]) and in test [3] (setting [9]) was 1 µg/mL (≈ 2.76 µM) in each case. The minimum bactericidal concentration (MBC) in test [1] (setting [6]) turned out to be 8 µg/mL (≈ 22.1 µM); in test [2] (setting [8]), 6 µg/mL (≈ 16.5 µM); in test [3] (setting [10]) it was 4 µg/mL (≈ 11 µM).
Turning to `CCCCCCCCCCCCCCCc1c(Br)ccc(OC)c1C(=O)O` [MDBAA, 5Bromo-6-pentadecyl-2-methoxybenzoic acid], the figures for the MIC in test [1] (setting [5]), in test [2] (setting [7]) and in test [3] (setting [9]) were 3 to 5 µg/mL (≈ 6.8 to 11.3 µM), 1 µg/mL (≈ 2.27 µM) and 0.5 µg/mL (≈ 1.13 µM), respectively. The minimal bactericidal concentration (MBC) in test [1] (setting [6]) worked out at 5 µg/mL (≈ 11.3 µM); in test [2] (setting [8]), 3 µg/mL (≈ 6.8 µM); in test [3] (setting [10]) it was 4 µg/mL (≈ 9.06 µM).
Take `CCCCCCCCCCCCCCCc1cccc(OC)c1C(=O)Nc1ccc(C(=O)O)cc1` [MAA-PABA]: the MIC is > 10 µg/mL in test [1] (setting [5]), 6 µg/mL (≈ 12.5 µM) in test [2] (setting [7]) and > 20 µg/mL in test [3] (setting [9]). In addition, the MBC in test [1] (setting [6]) is > 10 µg/mL; in test [2] (setting [8]) it was > 10 µg/mL; in test [3] (setting [10]) it was > 20 µg/mL.
Turning to `CCCCCCCCCCCCCCCc1cccc(OC)c1C(=O)NC(Cc1ccccc1)C(=O)O` (centres unmarked) [MAA-F], the values for the MIC in test [1] (setting [5]), in test [2] (setting [7]) and in test [3] (setting [9]) were > 10 µg/mL, 6 µg/mL (≈ 11.8 µM) and > 20 µg/mL, respectively. Also, the MBC in test [1] (setting [6]) was > 10 µg/mL; in test [2] (setting [8]), > 10 µg/mL; in test [3] (setting [10]), > 20 µg/mL.
On to `CCCCCCCCCCCCCCCc1c([N+](=O)[O-])cc([N+](=O)[O-])c(OC(C)=O)c1C(=O)O` [ADAA, 3,5-Dinitro-6-pentadecyl-2-acetyloxybenzoic acid], for which the results for the MIC in test [1] (setting [5]), in test [2] (setting [7]) and in test [3] (setting [9]) were 2 µg/mL (≈ 4.16 µM), 6 µg/mL (≈ 12.5 µM) and 4 µg/mL (≈ 8.32 µM), respectively. Further, the MBC in test [1] (setting [6]) was 6 µg/mL (≈ 12.5 µM); in test [2] (setting [8]) it was 6 µg/mL (≈ 12.5 µM); in test [3] (setting [10]) it was 10 µg/mL (≈ 20.8 µM).
`CCCCCCCCCCCCCCCc1c(Br)ccc(OC(C)=O)c1C(=O)O` [ADBAA, 5-Bromo-6-pentadecyl-2-acetyloxybenzoic acid]: the MIC in test [1] (setting [5]) is > 10 µg/mL; in test [2] (setting [7]), 1 µg/mL (≈ 2.13 µM); in test [3] (setting [9]), 9 to 10 µg/mL (≈ 19.2 to 21.3 µM). Further, the MBC in test [1] (setting [6]) is > 10 µg/mL; in test [2] (setting [8]) it was 3 µg/mL (≈ 6.39 µM); in test [3] (setting [10]), > 10 µg/mL.
In the case of `CCCCCCCCCCCCCCCc1cc([N+](=O)[O-])c([N+](=O)[O-])c(OC(C)=O)c1C(=O)O` [ANAA, 3,4-Dinitro-6-pentadecyl-2-acetyloxybenzoic acid], the values for the MIC in test [1] (setting [5]), in test [2] (setting [7]) and in test [3] (setting [9]) were 1 µg/mL (≈ 2.08 µM), 0.5 µg/mL (≈ 1.04 µM) and 2 µg/mL (≈ 4.16 µM), respectively. Further, the MBC was > 10 µg/mL in test [1] (setting [6]), 7 µg/mL (≈ 14.6 µM) in test [2] (setting [8]) and > 10 µg/mL in test [3] (setting [10]).
`CCCCCCCCCCCCCCCc1cccc(O)c1C(=O)O` [AA, 6-pentadecyl salicylic acid, reference compound]: the “minimum inhibitory concentration (MIC)” value in test [4] was 1600 µg/mL (≈ 4590 µM). In addition, the values for the MIC in test [1] (setting [5]), in test [2] (setting [7]) and in test [3] (setting [9]) were > 10 µg/mL, 0.5 µg/mL (≈ 1.43 µM) and > 50 µg/mL, respectively. Also, the minimum bactericidal concentration (MBC) in test [1] (setting [6]) is > 10 µg/mL; in test [2] (setting [8]), 6 µg/mL (≈ 17.2 µM); in test [3] (setting [10]) it was > 50 µg/mL.

The record behind these values is US8338638B2, “Antimicrobial derivatives of anacardic acid and process for preparing the same” (Unichem Laboratories Ltd., priority 2006, dated 2012).
